The test system of one data set is PCI model, C57/BL6 mice. Briefly: Survival rate in cholestasis model under septic conditions, peritoneal contamination and infection (PCI). Format: in vivo. The note with it: free drug alone, 4 mg/kg body weight. How it is done:
In order to mimic the septic cholestasis, a systemic inflammation was induced using the well-established peritoneal contamination and infection (PCI) model. In this model, a human feces suspension is applied intraperitoneally (i.p.) and rapidly triggers sepsis with liver dysfunction. For each batch of human stool, the dose is titrated carefully for a survival between 0% and 20% within two weeks.
To find the adequate dose of stool, different doses were tested. 6 h after i.p. application of the stool, 8-12 weeks old C57/BL6 mice or FVB/N mice were treated with the nanoparticles or the free drug respectively.
A systemic infection/sepsis with organ failure was induced in male C57/BL6 mice by using the PCI model. For this purpose, a human fecal suspension (2.5 μl/g BW for stool batch1 and 6 μl/g for stool batch 2, respectively) was injected intraperitoneally (without anesthesia) with weight adaptation, thus triggering peritonitis with subsequent systemic infection. […] The animals were closely monitored and scored every 6 hours for signs of infection in order to timely. […] With the evaluated dose of 6 μl/g BW stool and additional antibiotic therapy, all mice died within three days, as shown in the Kaplan-Meier-Schätzer diagram (FIG. 14, right panel). […]

The conditions of data set [1]: compared to placebo; cited from earlier work.
For data set [2] the following is noted: cited from earlier work.

With `O=C1NC(=O)/C(=C\c2ccc3nccnc3c2)S1` [AS605240], the “activity of free drug (survival)” value with PCI model, C57/BL6 mice is “active”.

For `CC[C@H](Nc1ncnc2[nH]cnc12)c1nc2cccc(F)c2c(=O)n1-c1ccccc1` [idelalisib], the “risk of developing sepsis as adverse effect” value in data set [1] is on record as “five-fold higher”.

`CO[C@@H]1[C@H](N(C)C(=O)c2ccccc2)C[C@H]2O[C@]1(C)n1c3ccccc3c3c4c(c5c6ccccc6n2c5c31)C(=O)NC4` [midostaurin]: the “Serious adverse reactions due to infections and gastrointestinal disorders” value in data set [2] (most common serious adverse reactions) is not below 20%. Further, the “on-treatment deaths from disease progression attributed to infection” value in data set [2] (number of deaths) was 4. Moreover, the “adverse reaction sepsis occurring in patients” value in data set [2] (page 8 of the professional information) was ≥ 9 % of patients. Also, in data set [2] (patients), the “Grade ≥3 adverse reactions reported (fatigue, sepsis, gastrointestinal hemorrhage, pneumonia, diarrhea, febrile neutropenia)” value was not below 5%; the Serious adverse reactions was 68 % of patients; the “Treatment discontinuation due to adverse reaction” value is listed as 21 % of patients.

In the case of `CN(C)CCCn1cc(C2=C(c3c[nH]c4ccccc34)C(=O)NC2=O)c2ccccc21` [BIM-1], the “activity of free drug (survival)” value in the data set on PCI model, C57/BL6 mice is reported as “active”.

These data come from patent publication US20250268913A1, “PKC INHIBITORS FOR THE TREATMENT OF SEPTIC CHOLESTASIS WITH CTM TARGETING” (SMARTDYELIVERY GMBH, priority 2018, published 2025).
